Test system: 636577-100-R-J1-PDC complex spheroid viability
Test: Anticancer human tumor 636577-100-R-J1-PDC patient-derived endometrial adenocarcinoma cell line growth inhibition [GQUAD]
Conditions: for IC50: curve of first compound; for viability, T/C: stronger effect = lower value
How it was run: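 Tumor cells were grown as complex spheroids with HUVEC endothelial cells and mesenchymal stem cells as stroma. G-quadruplex stabilizers were combined with targeted agents over half-log dilutions from near the clinical Cmax, or from 10 microM.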

[1] = second compound 0.0316 µM, first compound 0.0316 µM
[2] = second compound 0.0316 µM, first compound 0.1 µM
[3] = second compound 0.0316 µM, first compound 0.316 µM
[4] = second compound 0.0316 µM, first compound 1 µM
[5] = second compound 0.0316 µM, first compound 3.16 µM
[6] = second compound 0.0316 µM, first compound 10 µM
[7] = second compound 0.1 µM, first compound 0.0316 µM
[8] = second compound 0.1 µM, first compound 0.1 µM
[9] = second compound 0.1 µM, first compound 0.316 µM
[10] = second compound 0.1 µM, first compound 1 µM
[11] = second compound 0.1 µM, first compound 3.16 µM
[12] = second compound 0.1 µM, first compound 10 µM
[13] = second compound 0.316 µM, first compound 0.0316 µM
[14] = second compound 0.316 µM, first compound 0.1 µM
[15] = second compound 0.316 µM, first compound 0.316 µM
[16] = second compound 0.316 µM, first compound 1 µM
[17] = second compound 0.316 µM, first compound 3.16 µM
[18] = second compound 0.316 µM, first compound 10 µM
[19] = second compound 1 µM, first compound 0.0316 µM
[20] = second compound 1 µM, first compound 0.1 µM
[21] = second compound 1 µM, first compound 0.316 µM
[22] = second compound 1 µM, first compound 1 µM
[23] = second compound 1 µM, first compound 3.16 µM
[24] = second compound 1 µM, first compound 10 µM
[25] = second compound 3.16 µM, first compound 0.0316 µM
[26] = second compound 3.16 µM, first compound 0.1 µM
[27] = second compound 3.16 µM, first compound 0.316 µM
[28] = second compound 3.16 µM, first compound 1 µM
[29] = second compound 3.16 µM, first compound 3.16 µM
[30] = second compound 3.16 µM, first compound 10 µM
[31] = second compound 10 µM, first compound 0.0316 µM
[32] = second compound 10 µM, first compound 0.1 µM
[33] = second compound 10 µM, first compound 0.316 µM
[34] = second compound 10 µM, first compound 1 µM
[35] = second compound 10 µM, first compound 3.16 µM
[36] = second compound 10 µM, first compound 10 µM
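Note: viability read after seven days of drug exposure.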
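Throughout, for viability, T/C: luminescence signal used as a proxy for viable cells; 100% = DMSO vehicle control wells.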

Work on CC(C)n1c(=O)n(C)c2cnc3cc(F)c(-c4ccc(OCCCN5CCCCC5)nc4)cc3c21 + CN(C)c1ccc(Nc2c3ccc(NC(=O)CCN4CCCC4)cc3nc3cc(NC(=O)CCN4CCCC4)ccc23)cc1 yielded an IC50 (second compound 0.0316 µM) of over 10000 nM, an IC50 (second compound 0.1 µM) of over 10000 nM and an IC50 (second compound 0.316 µM) of 8490 nM. For the same molecule, the IC50 (second compound 1 µM) was 4900 nM, the IC50 (second compound 3.16 µM) was under 31.6 nM and the IC50 (second compound 10 µM) was under 31.6 nM. For the same molecule, the viability, T/C [1] was 121%, the viability, T/C [2] was 101% and the viability, T/C [3] was 127%. It also gave a viability, T/C [4] of 49.5%, a viability, T/C [5] of 93.8% and a viability, T/C [6] of 53.5%. For the same molecule, the viability, T/C [7] was 128%, the viability, T/C [8] was 102% and the viability, T/C [9] was 109%. The viability, T/C [10] was 74.9%, the viability, T/C [11] was 82.1% and the viability, T/C [12] was 52.4%. For the same molecule, the viability, T/C [13] was 67.6%, the viability, T/C [14] was 81.7% and the viability, T/C [15] was 103%. For the same molecule, the viability, T/C [16] was 63.6%, the viability, T/C [17] was 71.7% and the viability, T/C [18] was 46.6%. The viability, T/C [19] was 60%, the viability, T/C [20] was 67.8% and the viability, T/C [21] was 75.9%. It also gave a viability, T/C [22] of 57%, a viability, T/C [23] of 61.6% and a viability, T/C [24] of 33.5%. It also gave a viability, T/C [25] of 39%, a viability, T/C [26] of 36.2% and a viability, T/C [27] of 30.2%. The viability, T/C [28] was 27%, the viability, T/C [29] was 20.6% and the viability, T/C [30] was 14.5%. The viability, T/C [31] was 7%, the viability, T/C [32] was 5.49% and the viability, T/C [33] was 4.48%. It also gave a viability, T/C [34] of 2.77%, a viability, T/C [35] of 2.25% and a viability, T/C [36] of 0.79%.

CC1COCCN1c1cc(C2(O)CC3CCC(C2)O3)c2cnn(-c3ccn[nH]3)c2n1 (stereo not drawn) + CN(C)c1ccc(Nc2c3ccc(NC(=O)CCN4CCCC4)cc3nc3cc(NC(=O)CCN4CCCC4)ccc23)cc1 was tested, and the IC50 (second compound 0.0316 µM) was 46.2 nM, the IC50 (second compound 0.1 µM) was 33.6 nM and the IC50 (second compound 0.316 µM) was under 31.6 nM. The IC50 (second compound 1 µM) was under 31.6 nM, the IC50 (second compound 3.16 µM) was under 31.6 nM and the IC50 (second compound 10 µM) was under 31.6 nM. For the same molecule, the viability, T/C [1] was 59.8%, the viability, T/C [2] was 30.1% and the viability, T/C [3] was 14.8%. For the same molecule, the viability, T/C [4] was 7.23%, the viability, T/C [5] was 3% and the viability, T/C [6] was 0.68%. It also gave a viability, T/C [7] of 51.9%, a viability, T/C [8] of 25.7% and a viability, T/C [9] of 15.9%. It also gave a viability, T/C [10] of 6.63%, a viability, T/C [11] of 2.93% and a viability, T/C [12] of 0.63%. For the same molecule, the viability, T/C [13] was 49.4%, the viability, T/C [14] was 27.2% and the viability, T/C [15] was 14.4%. For the same molecule, the viability, T/C [16] was 7.39%, the viability, T/C [17] was 2.94% and the viability, T/C [18] was 0.62%. For the same molecule, the viability, T/C [19] was 44.5%, the viability, T/C [20] was 24.9% and the viability, T/C [21] was 13.1%. The viability, T/C [22] was 7.03%, the viability, T/C [23] was 2.84% and the viability, T/C [24] was 0.8%. The viability, T/C [25] was 23.6%, the viability, T/C [26] was 18.4% and the viability, T/C [27] was 12.6%. For the same molecule, the viability, T/C [28] was 6.87%, the viability, T/C [29] was 2.75% and the viability, T/C [30] was 0.79%. For the same molecule, the viability, T/C [31] was 5.13%, the viability, T/C [32] was 4.81% and the viability, T/C [33] was 2.43%. It also gave a viability, T/C [34] of 2.03%, a viability, T/C [35] of 1.14% and a viability, T/C [36] of 0.3%.

With CC1COCCN1c1cc(C2(S(C)(=N)=O)CC2)nc(-c2ccnc3[nH]ccc23)n1 (stereo not drawn) + CN(C)c1ccc(Nc2c3ccc(NC(=O)CCN4CCCC4)cc3nc3cc(NC(=O)CCN4CCCC4)ccc23)cc1 the IC50 (second compound 0.0316 µM) was 1040 nM, the IC50 (second compound 0.1 µM) was 934 nM and the IC50 (second compound 0.316 µM) was 463 nM. It also gave an IC50 (second compound 1 µM) of 626 nM, an IC50 (second compound 3.16 µM) of under 31.6 nM and an IC50 (second compound 10 µM) of under 31.6 nM. For the same molecule, the viability, T/C [1] was 91.4%, the viability, T/C [2] was 74.6% and the viability, T/C [3] was 89.4%. The viability, T/C [4] was 51.2%, the viability, T/C [5] was 21.4% and the viability, T/C [6] was 14%. For the same molecule, the viability, T/C [7] was 78.4%, the viability, T/C [8] was 71.3% and the viability, T/C [9] was 89.4%. For the same molecule, the viability, T/C [10] was 48.1%, the viability, T/C [11] was 22.4% and the viability, T/C [12] was 14.6%. For the same molecule, the viability, T/C [13] was 75.7%, the viability, T/C [14] was 67.3% and the viability, T/C [15] was 54.2%. The viability, T/C [16] was 41.2%, the viability, T/C [17] was 24.4% and the viability, T/C [18] was 14.1%. For the same molecule, the viability, T/C [19] was 42.9%, the viability, T/C [20] was 80.2% and the viability, T/C [21] was 65%. The viability, T/C [22] was 41.2%, the viability, T/C [23] was 23.6% and the viability, T/C [24] was 16%. The viability, T/C [25] was 34.6%, the viability, T/C [26] was 45.8% and the viability, T/C [27] was 34%. The viability, T/C [28] was 29.5%, the viability, T/C [29] was 18.3% and the viability, T/C [30] was 13.2%. For the same molecule, the viability, T/C [31] was 6.13%, the viability, T/C [32] was 5.83% and the viability, T/C [33] was 5.26%. For the same molecule, the viability, T/C [34] was 5.47%, the viability, T/C [35] was 3.58% and the viability, T/C [36] was 1.72%.

With COc1ccc([C@@H](O)c2cc(-c3ncnc4cc(N5CCOCC5)ccc34)c(F)cc2Cl)nn1 + CN(C)c1ccc(Nc2c3ccc(NC(=O)CCN4CCCC4)cc3nc3cc(NC(=O)CCN4CCCC4)ccc23)cc1 the IC50 (second compound 0.0316 µM) was 1560 nM, the IC50 (second compound 0.1 µM) was 486 nM and the IC50 (second compound 0.316 µM) was 466 nM. For the same molecule, the IC50 (second compound 1 µM) was 153 nM, the IC50 (second compound 3.16 µM) was under 31.6 nM and the IC50 (second compound 10 µM) was under 31.6 nM. For the same molecule, the viability, T/C [1] was 93.7%, the viability, T/C [2] was 98% and the viability, T/C [3] was 88.5%. For the same molecule, the viability, T/C [4] was 55.3%, the viability, T/C [5] was 39.1% and the viability, T/C [6] was 20.1%. The viability, T/C [7] was 102%, the viability, T/C [8] was 63.5% and the viability, T/C [9] was 58.3%. It also gave a viability, T/C [10] of 44%, a viability, T/C [11] of 37% and a viability, T/C [12] of 19.8%. For the same molecule, the viability, T/C [13] was 77.5%, the viability, T/C [14] was 77.2% and the viability, T/C [15] was 61%. It also gave a viability, T/C [16] of 27.6%, a viability, T/C [17] of 24% and a viability, T/C [18] of 12.1%. It also gave a viability, T/C [19] of 73.2%, a viability, T/C [20] of 47.4% and a viability, T/C [21] of 50.6%. For the same molecule, the viability, T/C [22] was 25.5%, the viability, T/C [23] was 17.4% and the viability, T/C [24] was 11.7%. It also gave a viability, T/C [25] of 35.3%, a viability, T/C [26] of 40.5% and a viability, T/C [27] of 24%. For the same molecule, the viability, T/C [28] was 14.5%, the viability, T/C [29] was 9.36% and the viability, T/C [30] was 7.69%. It also gave a viability, T/C [31] of 5.37%, a viability, T/C [32] of 4.81% and a viability, T/C [33] of 3.18%. For the same molecule, the viability, T/C [34] was 2.32%, the viability, T/C [35] was 1.95% and the viability, T/C [36] was 0.58%.
